System: Nanog promoter, Sox2 promoter, Lin28 promoter, Oct4 promoter
Assay: Luciferase assay in the screening device (cells stably carrying pStable promoter-Luc reporter plasmids)
Assay type: cell-based, mouse
Settings: 2 mM VPA, reacted with cells for 24 hours, "24 hr cell"; C2C12 / P19 stable clones
Method: The screening is performed after the cells that express various promoters stably being prepared. […] The reporter plasmids whose backbone is constructed by the method mentioned above are transinfected individually into different dishes of host cells. After the reporter plasmids have been introduced into C2C12 or P19 cells, use G418 (Geneticin), a selective antibiotic for Neomycin resistance gene, to screen positive clones because pStable clones carry Neomycin resistance gene. After cell culture, transinfection, stable clone selection, and cells growing as colonies, stable clones in which various different promoters are expressed are obtained. In an embodiment of the present invention, pStable-Nanog-p-Luc plasmid, pStable-Sox2-p-Luc plasmid, pStable-Lin28-p-Luc plasmid and pStable-Oct4-p-Luc plasmid are introduced into both a C2C12 cell line and a P19 cell line. […] The C2C12 cell and P19 cell are cultured in an incubator under normal growth conditions (typically at 37° C., 5% CO2, and saturated humidity). Culture conditions of C2C12 cells and P19 cells are listed in the following list one: After the transfection processes, perform stable clone selection. The transfected cells are cultured in a culture medium containing 800 ug/ml G418. […] In an embodiment of the present invention, harvest cells after cells being reacted with 2 mM VPA for 24 hours and measure luminescence expression of cells. […]

## CCCC(CCC)C(=O)O [VPA, valporic acid]
  level of Luciferase (luminescence expression): higher level of Luciferase

— US20130004959A1, “SCREENING DEVICE CONTAINING NANOG PROMOTER, SOX2 PROMOTER, LIN 28 PROMOTER, OCT4 PROMOTER AND LUCIFERASE GENE AND SCREENING METHOD THEREOF” (NATIONAL CENTRAL UNIVERSITY, priority 2011, published 2013)
